# Biological target: T1, human DGAT2 (Homo sapiens, UniProt Q96PD7)
# T1 construct: made in house; host or cells: Sf-9 insect cells (baculovirus), membrane fraction
# T1 sequence (Q96PD7 1-388): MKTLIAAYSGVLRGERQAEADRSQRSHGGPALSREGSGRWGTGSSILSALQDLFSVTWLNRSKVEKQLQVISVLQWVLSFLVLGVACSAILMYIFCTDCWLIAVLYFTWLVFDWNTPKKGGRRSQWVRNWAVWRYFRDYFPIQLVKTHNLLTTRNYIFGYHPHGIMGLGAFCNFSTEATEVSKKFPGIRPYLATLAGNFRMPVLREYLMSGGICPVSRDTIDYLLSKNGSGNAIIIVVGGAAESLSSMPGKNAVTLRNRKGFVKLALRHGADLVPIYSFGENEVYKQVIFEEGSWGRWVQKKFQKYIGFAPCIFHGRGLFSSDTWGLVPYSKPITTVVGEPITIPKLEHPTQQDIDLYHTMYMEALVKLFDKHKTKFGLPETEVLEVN
# Experiment: DGAT2 Enzymatic Activity Assay
# Assay type: biochemical
# Conditions: membrane prep of Sf-9 insect cells expressing hDGAT2; 13C18-triolein product by LC/MS/MS; 25 μM diolein, 5 μM 13C oleoyl-CoA
# In short: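 Membrane fractions from Sf-9 cells expressing untagged human DGAT2 (baculovirus, 48 h) used as enzyme; reaction run at rt. Product ^13C18-triolein quantified by LC/MS/MS (positive HESI, C4 column) against ^13C21-triolein internal standard after liquid-liquid extraction; % inhibition versus high/low controls and IC50 derived.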
row,Compound,IC50
1,"Cc1cc(Oc2ncc(F)cc2OCC(F)(F)F)cc2cc(C(=O)NC3(C)CCS(=O)(=O)CC3)nn12 [Example 59, 5-((5-Fluoro-3-(2,2,2-trifluoroethoxy)pyridin-2-yl)oxy)-7-methyl-N-(4-methyl-1,1-dioxidotetrahydro-2H-thiopyran-4-yl)pyrazolo[1,5-a]pyridine-2-carboxamide]",6 nM
2,"Cc1cn2nc(C(=O)NC3(C)CCS(=O)(=O)CC3)cc2cc1Oc1ncc(F)cc1OCC(F)(F)F [Example 60, 5-((5-Fluoro-3-(2,2,2-trifluoroethoxy)pyridin-2-yl)oxy)-6-methyl-N-(4-methyl-1,1-dioxidotetrahydro-2H-thiopyran-4-yl)pyrazolo[1,5-a]pyridine-2-carboxamide]",3.5 nM
3,"CC1(NC(=O)c2nn3ccc(Oc4ncc(Cl)cc4OCC(F)F)nc3c2F)CCS(=O)(=O)CC1 [Example 61, 5-((5-Chloro-3-(2,2-difluoroethoxy)pyridin-2-yl)oxy)-3-fluoro-N-(4-methyl-1,1-dioxidotetrahydro-2H-thiopyran-4-yl)pyrazolo[1,5-a]pyrimidine-2-carboxamide]",133 nM
4,"CC1(NC(=O)c2cc3nc(Oc4ncc(Cl)cc4OCC(F)F)ccn3n2)CCS(=O)(=O)CC1 [Example 62, 5-((5-Chloro-3-(2,2-difluoroethoxy)pyridin-2-yl)oxy)-N-(4-methyl-1,1-dioxidotetrahydro-2H-thiopyran-4-yl)pyrazolo[1,5-a]pyrimidine-2-carboxamide]",86 nM
5,"CC1(NC(=O)c2nc3cc(Oc4ncc(Cl)cc4OCC(F)(F)F)ccn3n2)CCS(=O)(=O)CC1 [Example 63, 7-((5-Chloro-3-(2,2,2-trifluoroethoxy)pyridin-2-yl)oxy)-N-(4-methyl-1,1-dioxidotetrahydro-2H-thiopyran-4-yl)-[1,2,4]triazolo[1,5-a]pyridine-2-carboxamide]",349 nM
6,"O=C(NC1(C(F)F)CCS(=O)(=O)CC1)c1nc2cc(Oc3ncc(Cl)cc3OCC(F)(F)F)ccn2n1 [Example 64, 7-((5-Chloro-3-(2,2,2-trifluoroethoxy)pyridin-2-yl)oxy)-N-(4-(difluoromethyl)-1,1-dioxidotetrahydro-2H-thiopyran-4-yl)-[1,2,4]triazolo[1,5-a]pyridine-2-carboxamide]",165 nM
7,"O=C(NC1(CC(F)(F)F)CCS(=O)(=O)CC1)c1nc2cc(Oc3ncc(Cl)cc3OCC(F)(F)F)ccn2n1 [Example 65, 7-((5-Chloro-3-(2,2,2-trifluoroethoxy)pyridin-2-yl)oxy)-N-(1,1-dioxido-4-(2,2,2-trifluoroethyl)tetrahydro-2H-thiopyran-4-yl)-[1,2,4]triazolo[1,5-a]pyridine-2-carboxamide]",160 nM
8,"CC1(NC(=O)c2nc3cc(Oc4ncc(Cl)cc4OCC(F)(F)F)ccn3n2)CS(=O)(=O)C1 [Example 66, 7-((5-Chloro-3-(2,2,2-trifluoroethoxy)pyridin-2-yl)oxy)-N-(3-methyl-1,1-dioxidothietan-3-yl)-[1,2,4]triazolo[1,5-a]pyridine-2-carboxamide]",67 nM
9,"CC1(NC(=O)c2cc3nc(OCc4ncc(Cl)cc4OCC(F)F)ccn3n2)CCS(=O)(=O)CC1 [Example 67, 5-((5-Chloro-3-(2,2-difluoroethoxy)pyridin-2-yl)methoxy)-N-(4-methyl-1,1-dioxidotetrahydro-2H-thiopyran-4-yl)pyrazolo[1,5-a]pyrimidine-2-carboxamide]",3.3 nM
10,"COc1cccc(COc2ccn3nc(C(=O)NC4(C)CCS(=O)(=O)CC4)cc3n2)n1 [Example 68, 5-((6-Methoxypyridin-2-yl)methoxy)-N-(4-methyl-1,1-dioxidotetrahydro-2H-thiopyran-4-yl)pyrazolo[1,5-a]pyrimidine-2-carboxamide]",> 9990 nM
11,"CCOc1cccc(COc2ccn3nc(C(=O)NC4(C)CCS(=O)(=O)CC4)cc3n2)n1 [Example 69, 5-((6-Ethoxypyridin-2-yl)methoxy)-N-(4-methyl-1,1-dioxidotetrahydro-2H-thiopyran-4-yl)pyrazolo[1,5-a]pyrimidine-2-carboxamide]",264 nM
12,"COc1ccc(Cl)c(COc2ccn3nc(C(=O)NC4(C)CCS(=O)(=O)CC4)cc3n2)n1 [Example 70, 5-((3-Chloro-6-methoxypyridin-2-yl)methoxy)-N-(4-methyl-1,1-dioxidotetrahydro-2H-thiopyran-4-yl)pyrazolo[1,5-a]pyrimidine-2-carboxamide]",82 nM

# Source: patent US20260193249A1, “PREPARATION OF PYRAZOLOPYRIDINE AND TRIAZOLOPYRIDINE DERIVATIVES AS NOVEL DIACYLGLYCERIDE O-ACYLTRANSFERASE 2 INHIBITORS” (Merck Sharp & Dohme LLC, priority 2022, published 2026)
